According to patent US11850306B2, “Method for drying hydrogel comprising nanofibrillar cellulose and a dried hydrogel comprising nanofibrillar cellulose” (UPM-KYMMENE CORPORATION, priority 2016, dated 2023):
Where “and” joins values, the source holds several entries; their conditions need not be identical. Identical values can stand only once. Like-named read-outs stand apart in the source and are kept apart here.

Experiments:
[1] = In vitro release studies: diffusion coefficients of model compounds from NFC hydrogels; type: physicochemical; conditions: for Diffusion coefficient in NFC-hydrogels: pH 7.4, 37° C.
Method: (§1) In vitro drug release studies were performed with modified intrinsic dissolution disc dies filled with 1.07 g of formulations with a constant flat surface area of 1.33 cm^2. Discs were placed in 150 ml amber glass vessels on top of a holder. The vessels were filled to a final volume of 70 ml with pH 7.4 phosphate buffered saline (1×DPBS) and kept at 37° C. under constant magnetic stirring (400 rpm) on top of a multi-position magnetic stirrer IKA RT10 (IKA-Werke GmbH & Co KG, Germany). […] All experiments were done in triplicate.
The flow rate was 0.5 ml/min and the injection volume 5 μl. […] During the gradient run the mobile phase consisted of a mixture of acetonitrile and 15 mM phosphate buffer pH 2 in 25:75 ratio at 0-3 min. After 3 min the mobile phase composition was changed to 75:25 ratio. […] For nadolol, the used column was HSS-T3 1.8 μm (2.1×50 mm) (Waters, USA) at 30° C. The flow rate was 0.5 ml/min and the injection volume 5 μl. […] During the gradient run the mobile phase consisted of a mixture of acetonitrile and 15 mM phosphate buffer pH 2 in 10:90 ratio at 0-3 min. After 3 min the mobile phase composition was changed to 50:50 ratio.
200 μl of samples were pipetted into wells of 96-well OptiPlate plates (PerkinElmer, Finland). Excitation wavelength 490 nm, emission wavelength 520 nm and 12 nm bandwidth were used.
For metronidazole, absorbance was measured in 1 cm cell at 320 nm with 12 nm bandwidth against blank.
Sample and reagent were mixed thoroughly with a multi-channel pipet and incubated for 20 minutes at room temperature before absorbance measurement.
Mathematical equations were used for the modelling of diffusion controlled drug release that take into consideration structure of the device, the ratio of initial drug concentration to drug solubility and the device geometry. The diffusion coefficients were calculated by Higuchi equation (1) for small molecules with a presumption that these systems could be described as monolithic dispersions (Equations 1 and 2 below). For large molecules (1 kDa) equations we used to solve Fick's second law of diffusion and diffusion coefficients (2) with a presumption that these systems could be described as monolithic solutions (FIG. 2).
as §1, with “cm2.” for “cm^2.”

[2] = nitrogen; cited from earlier work
[3] = cited from earlier work; for Solubility in aqueous media (intrinsic solubility): 25° C.
[4] = cited from earlier work
[5] = 3% NFC/exp (PEG6000 and trehalose), before freeze drying
[6] = 6.5% NFC/exp (PEG6000 and trehalose), before freeze drying
[7] = FD 3% NFC/exp, freeze dried and redispersed
[8] = FD 6.5% NFC/exp, freeze dried and redispersed

Compound	Diffusion coefficients for model compounds in different NFC hydrogels ([1]; 3% NFC, no excipients)	Diffusion coefficients for model compounds in different NFC hydrogels [1, 5]	Diffusion coefficients for model compounds in different NFC hydrogels ([1]; 6.5% NFC, no excipients)	Diffusion coefficients for model compounds in different NFC hydrogels [1, 6]	Diffusion coefficients for model compounds in different NFC hydrogels [1, 7]	Diffusion coefficients for model compounds in different NFC hydrogels [1, 8]	Diffusion coefficient in NFC-hydrogels ([1]; NFC hydrogel 11804-3 (3.2%))	Diffusion coefficient in NFC-hydrogels ([1]; NFC hydrogel 11814-1 (5.7%))	Diffusion coefficient in NFC-hydrogels ([1]; NFC hydrogel 11814-3 (5.7%))	Diffusion coefficient in NFC-hydrogels ([1]; NFC hydrogel 11815-3 (6.8%))	Onset degradation temp Td, N2 [2]	Solubility in aqueous media (intrinsic solubility) [3]	Solubility in aqueous media ([3]; pH 7)	Charge at pH 7.0 ([4]; pH 7.0)	Charge of compounds at pH 7.4 ([4]; pH 7.4)	pKa/pI [4]	Solubility in aqueous media ([3]; condition not given)
OC[C@H]1O[C@H](O[C@H]2O[C@H](CO)[C@@H](O)[C@H](O)[C@H]2O)[C@H](O)[C@@H](O)[C@@H]1O [Trehalose, D-(+)-trehalose dihydrate]	–	–	–	–	–	–	–	–	–	–	230 °C	–	–	–	–	–	–
Lysozyme: Lysozyme from hen egg white, 14.7 kDa model compound	3.53 10^−8 cm^2/s	–	1.75 10^−8 cm^2/s	–	–	–	3.53 10^−8 cm^2/s	1.79 10^−8 cm^2/s	2.57 10^−8 cm^2/s	1.75 10^−8 cm^2/s	–	–	–	–	–	–	>10 mg/mL
Polyethylene glycol 6000 [PEG 6000]	–	–	–	–	–	–	–	–	–	–	257 °C	–	–	–	–	–	–

Further lines, with some results ahead:

Diffusion coefficients for model compounds in different NFC hydrogels ([1]; 3% NFC, no excipients)	Diffusion coefficients for model compounds in different NFC hydrogels [1, 5]	Diffusion coefficients for model compounds in different NFC hydrogels ([1]; 6.5% NFC, no excipients)	Diffusion coefficients for model compounds in different NFC hydrogels [1, 6]	Diffusion coefficients for model compounds in different NFC hydrogels [1, 7]	Diffusion coefficients for model compounds in different NFC hydrogels [1, 8]	Diffusion coefficient in NFC-hydrogels ([1]; NFC hydrogel 11804-3 (3.2%))	Diffusion coefficient in NFC-hydrogels ([1]; NFC hydrogel 11814-1 (5.7%))	Diffusion coefficient in NFC-hydrogels ([1]; NFC hydrogel 11814-3 (5.7%))	Diffusion coefficient in NFC-hydrogels ([1]; NFC hydrogel 11815-3 (6.8%))	Compound	Onset degradation temp Td, N2 [2]	Solubility in aqueous media (intrinsic solubility) [3]	Solubility in aqueous media ([3]; pH 7)	Charge at pH 7.0 ([4]; pH 7.0)	Charge of compounds at pH 7.4 ([4]; pH 7.4)	pKa/pI [4]	Solubility in aqueous media ([3]; condition not given)
152.62 10^−8 cm^2/s	147.15 10^−8 cm^2/s	141.86 10^−8 cm^2/s	141.20 10^−8 cm^2/s	129.97 10^−8 cm^2/s	124.44 10^−8 cm^2/s	152.62 10^−8 cm^2/s	131.41 10^−8 cm^2/s	148.23 10^−8 cm^2/s	141.86 10^−8 cm^2/s	CC(C(=O)O)c1cccc(C(=O)c2ccccc2)c1 (stereo not drawn) [Ketoprofen]	–	–	–	–	–	–	–
716.99 10^−8 cm^2/s	657.41 10^−8 cm^2/s	617.51 10^−8 cm^2/s	617.16 10^−8 cm^2/s	699.10 10^−8 cm^2/s	660.18 10^−8 cm^2/s	716.99 10^−8 cm^2/s	609.51 10^−8 cm^2/s	551.09 10^−8 cm^2/s	617.51 10^−8 cm^2/s	Cc1ncc([N+](=O)[O-])n1CCO [Metronidazole]	160 °C	10.5 (25° C.), mg/ml and 10.5 mg/ml	10.5 (pH 7) mg/ml	ø	Metronidazole (ø)	–	–
286.24 10^−8 cm^2/s	292.92 10^−8 cm^2/s	230.62 10^−8 cm^2/s	245.04 10^−8 cm^2/s	296.36 10^−8 cm^2/s	267.21 10^−8 cm^2/s	286.24 10^−8 cm^2/s	273.21 10^−8 cm^2/s	287.50 10^−8 cm^2/s	230.62 10^−8 cm^2/s	CC(C)(C)NCC(O)COc1cccc2c1CC(O)C(O)C2 (stereo not drawn) [Nadolol]	196.2 °C	8.3 (25° C.), mg/ml	8.3 (pH 7) mg/ml	–	–	9.28	–
